Structures can show the parent of a compound that is named as a salt. Where two headings read alike, the source gives them in different places.
Key:
[1] = biological target: BIR3 domain of human XIAP (residues 252-350) (Homo sapiens (Human), UniProt P98170); assay: XIAP in vitro competitive displacement binding assay (fluorescence polarization); details: for IC50: read-out: IC50 or PI Xiap: IC50
[2] = biological target: BIR3 domain of human cIAP-1 (residues 267-363) (Homo sapiens (Human), UniProt Q13490); assay: cIAP-1 in vitro competitive displacement binding assay (fluorescence polarization; Probe A AVPIK(5&6FAM)-amide or Probe B AbuRPFK(5&6FAM)-amide)
[3] = test system: EVSA-T (human breast carcinoma); assay: Anti-proliferative activity, Alamar Blue assay, EVSA-T; assay type: cell-based; details: Homo sapiens, EVSA-T
[4] = 1 h, read-out: IC50 or PI Xiap: PI
[5] = 3 h, read-out: IC50 or PI cIAP1: PI
[6] = 72 hours, Alamar Blue, read-out: EVSA-T prolif (EC50)
[7] = 3 h, Probe B, @ 0.012 μM, read-out: IC50 or PI cIAP1: PI
[8] = Probe B AbuRPFK(5&6FAM)-amide, read-out: IC50 or PI cIAP1: IC50
[9] = read-out: IC50 or PI cIAP1: IC50
[10] = 72 h, read-out: EVSA-T prolif (EC50)
[11] = 1 h, @ 0.04 μM, read-out: IC50 or PI Xiap: PI

Row | EC50 [3, 6] [nM] | IC50 [1] [nM] | Compound | inhibition at […] [2, 5] [%] | also measured
1 | 91 | 76 | CCCC(F)(F)c1cc2c(cn1)C(C)(C)CN2C(=O)CN1C[C@@H](C)NC[C@@H]1Cc1nccs1 [Example 233, 1-[6-(1,1-Difluorobutyl)-3,3-dimethyl-1H,2H,3H-pyrrolo[3,2-c]pyridin-1-yl]-2-[(2S,5R)-5-methyl-2-(1,3-thiazol-2-ylmethyl)piperazin-1-yl]ethan-1-one hydrochloride] | – | inhibition at […] [2, 7]: 62%
2 | 4800 | 1200 | COC[C@H]1CN[C@H](C)CN1CC(=O)N1CC(C)(C)c2cnc(C3CCCC3)cc21 [Example 92, 1-{6-Cyclopentyl-3,3-dimethyl-1H,2H,3H-pyrrolo[3,2-c]pyridin-1-yl}-2-[(2R,5R)-2-(methoxymethyl)-5-methylpiperazin-1-yl]ethan-1-one, hydrochloride salt] | – | IC50 [2, 8]: 270 nM
3 | 71 | 74 | C[C@@H]1CN(CC(=O)N2CC(C)(C)c3ccc(Cc4ccccc4)cc32)[C@@H](C(=O)N2CCOCC2)CN1 [Example 111, 1-(6-Benzyl-3,3-dimethyl-2,3-dihydro-indol-1-yl)-2-[(2R,5R)-5-methyl-2-(morpholine-4-carbonyl)-piperazin-1-yl]-ethanone, hydrochloride salt] | – | inhibition at 0.01 µM ([2]; 3 h, Probe B, @ 0.01 μM, read-out: IC50 or PI cIAP1: PI): 63%
4 | – | 220 | C[C@@H]1CN(CC(=O)N2CC3(Cc4ccccc4C3)c3ccc(Cl)cc32)[C@@H](Cn2cccn2)CN1 [Example 142, 1-{6′-Chloro-1,1′,2′,3-tetrahydrospiro[indene-2,3′-indole]-1′-yl}-2-[(2R,5R)-5-methyl-2-(1H-pyrazol-1-ylmethyl)piperazin-1-yl]ethan-1-one hydrochloride] | – | IC50 [2, 8]: 150 nM; inhibition at 1 µM ([3]; at 1 μM, read-out: EVSA-T prolif: % inhibition): 20%
5 | 310 | 290 | COC[C@H]1CN[C@H](C)CN1CC(=O)N1CC(C)(C)c2cnc(Cc3cccc(Cl)c3)cc21 [Example 86, 1-{6-[(3-Chlorophenyl)methyl]-3,3-dimethyl-1H,2H,3H-pyrrolo[3,2-c]pyridin-1-yl}-2-[(2R,5R)-2-(methoxymethyl)-5-methylpiperazin-1-yl]ethan-1-one, hydrochloride salt] | – | IC50 [2]: < 1000 nM; IC50 [2, 8]: 12 nM
6 | 2500 | 760 | COC[C@H]1CN[C@H](C)CN1CC(=O)N1C[C@](C)(c2cc(C)no2)c2ccc(Cc3ccccc3)cc21 [Example 174, 1-[(3R)-6-Benzyl-3-methyl-3-(3-methyl-1,2-oxazol-5-yl)-2,3-dihydro-1H-indol-1-yl]-2-[(2R,5R)-2-(methoxymethyl)-5-methylpiperazin-1-yl]ethan-1-one hydrochloride] | – | IC50 [2]: < 1000 nM; IC50 [2, 8]: 190 nM
7 | 2.2 | – | C[C@@H]1CN(CC(=O)N2CC(C)(C)c3cnc(Cc4ccccc4F)cc32)[C@@H](CN2CCOC[C@H]2C)CN1 [Example 244, 1-{6-[(2-Fluorophenyl)methyl]-3,3-dimethyl-1H,2H,3H-pyrrolo[3,2-c]pyridin-1-yl}-2-[(2R,5R)-5-methyl-2-{[(3R)-3-methylmorpholin-4-yl]methyl}piperazin-1-yl]ethan-1-one hydrochloride] | – | inhibition at 0.04 µM [1, 11]: 67%; inhibition at […] [2, 7]: 98%
8 | – | – | CC[C@@H](C(=O)N1CC(C)(C)c2ccc(C#N)cc21)N1CCN[C@H](C)C1 [Example 266, 3,3-Dimethyl-1-[(2S)-2-[(3R)-3-methylpiperazin-1-yl]butanoyl]-2,3-dihydro-1H-indole-6-carbonitrile, hydrochloride salt] | – | inhibition at 150 µM [1, 4]: -6%; inhibition at 50 µM [2, 5]: 24%; inhibition at 10 µM ([3]; at 10 μM, read-out: EVSA-T prolif: % inhibition): -20%
9 | 4.2 | 47 | C[C@@H]1CN(CC(=O)N2CC(C)(C)c3cnc(Cc4ccccc4F)cc32)[C@@H](CN2CCOCC2)CN1 [Example 245, 1-{6-[(2-Fluorophenyl)methyl]-3,3-dimethyl-1H,2H,3H-pyrrolo[3,2-c]pyridin-1-yl}-2-[(2R,5R)-5-methyl-2-(morpholin-4-ylmethyl)piperazin-1-yl]ethan-1-one hydrochloride] | – | inhibition at […] [2, 7]: 86%
10 | – | – | CC[C@@H]1COCCN1C[C@H]1CN[C@H](C)CN1CC(=O)N1CC(C)(C)c2ncc(C(F)(F)CC)cc21 [Example 255, 1-[6-(1,1-Difluoropropyl)-3,3-dimethyl-1H,2H,3H-pyrrolo[3,2-b]pyridin-1-yl]-2-[(2R,5R)-2-{[(3R)-3-ethylmorpholin-4-yl]methyl}-5-methylpiperazin-1-yl]ethan-1-one dihydrochloride] | – | inhibition at 0.04 µM [1, 4]: 49%; IC50 [2]: < 1000 nM; IC50 [2, 9]: 14 nM; EC50 [3, 10]: 32 nM
11 | 27 | – | CCCC(F)(F)c1cc2c(cn1)C(C)(C)CN2C(=O)CN1C[C@@H](C)NC[C@@H]1CN1CCCC1=O [Example 227, 1-{[(2R,5R)-1-{2-[6-(1,1-Difluorobutyl)-3,3-dimethyl-1H,2H,3H-pyrrolo[3,2-c]pyridin-1-yl]-2-oxoethyl}-5-methylpiperazin-2-yl]methyl}pyrrolidin-2-one hydrochloride] | – | inhibition at 0.04 µM [1, 11]: 60%; inhibition at […] [2, 7]: 78%
12 | 95 | 65 | C[C@@H]1CN(CC(=O)N2CC(C)(C)c3cnc(Cc4ccccc4)cc32)[C@@H](Cn2cc(F)cn2)CN1 [Example 157, 1-{6-Benzyl-3,3-dimethyl-1H,2H,3H-pyrrolo[3,2-c]pyridin-1-yl}-2-[(2R,5R)-2-[(4-fluoro-1H-pyrazol-1-yl)methyl]-5-methylpiperazin-1-yl]ethan-1-one hydrochloride] | – | inhibition at […] [2, 7]: 78%
13 | 1600 | 400 | CCC1(CC)CN(C(=O)CN2C[C@@H](C)NC[C@@H]2C(=O)N2CCOCC2)c2cc(Cl)ccc21 [Example 135, 1-(6-Chloro-3,3-diethyl-2,3-dihydro-1H-indol-1-yl)-2-[(2R,5R)-5-methyl-2-[(morpholin-4-yl)carbonyl]piperazin-1-yl]ethan-1-one hydrochloride] | – | IC50 [2, 8]: 79 nM

Row | Compound | EC50 [3, 6] [nM] | IC50 [1] [nM] | inhibition at […] [2, 5] [%] | also measured
14 | C[C@@H]1CN(CC(=O)N2CC(C)(C)c3cnc(C(F)(F)c4ccccc4)cc32)[C@@H](CN2CCCC2=O)CN1 [Example 173, 1-{[(2R,5R)-1-(2-{6-[Difluoro(phenyl)methyl]-3,3-dimethyl-1H,2H,3H-pyrrolo[3,2-c]pyridin-1-yl}-2-oxoethyl)-5-methylpiperazin-2-yl]methyl}pyrrolidin-2-one dihydrochloride] | 36 | – | 80 | inhibition at 0.04 µM [1, 4]: 73%
15 | COC[C@H]1CN[C@H](C)CN1CC(=O)N1CC(C)(C)c2cnc(-c3ccsc3)cc21 [Example 126, 1-[3,3-Dimethyl-6-(thiophen-3-yl)-1H,2H,3H-pyrrolo[3,2-c]pyridin-1-yl]-2-[(2R,5R)-2-(methoxymethyl)-5-methylpiperazin-1-yl]ethan-1-one dihydrochloride] | – | 380 | – | IC50 [2, 9]: 86 nM; EC50 ([3]; 72 h, read-out: EC50, inhibition of cell growth): < 10000 nM; EC50 [3, 10]: 1800 nM
16 | CC[C@@H]1COCCN1C[C@H]1CN[C@H](C)CN1CC(=O)N1CC(C)(C)c2ncc(Cc3ccc(F)cc3)cc21 [Example 254, 2-[(2R,5R)-2-{[(3R)-3-Ethylmorpholin-4-yl]methyl}-5-methylpiperazin-1-yl]-1-{6-[(4-fluorophenyl)methyl]-3,3-dimethyl-1H,2H,3H-pyrrolo[3,2-b]pyridin-1-yl}ethan-1-one dihydrochloride] | 1.9 | – | 98 | inhibition at 0.04 µM [1, 4]: 51%
17 | C[C@@H]1CN(CC(=O)N2CC(C)(C)c3cnc(Cc4ccc(F)cc4F)cc32)[C@@H](CN2CCC(=O)C2)CN1 [Example 207, 1-{[(2R,5R)-1-(2-{6-[(2,4-Difluorophenyl)methyl]-3,3-dimethyl-1H,2H,3H-pyrrolo[3,2-c]pyridin-1-yl}-2-oxoethyl)-5-methylpiperazin-2-yl]methyl}pyrrolidin-3-one dihydrochloride] | – | 57 | 98 | EC50 [3, 10]: 4 nM
18 | C[C@@H]1CN(CC(=O)N2CC(C)(C)c3cnc(Cc4ccc(F)cc4F)cc32)[C@@H](CN2CC[C@@H](F)C2)CN1 [Example 203, 1-{6-[(2,4-Difluorophenyl)methyl]-3,3-dimethyl-1H,2H,3H-pyrrolo[3,2-c]pyridin-1-yl}-2-[(2R,5R)-2-{[(3R)-3-fluoropyrrolidin-1-yl]methyl}-5-methylpiperazin-1-yl]ethan-1-one dihydrochloride] | – | 73 | 97 | EC50 [3, 10]: 3.2 nM
19 | Cc1cnn(C[C@H]2CN[C@H](C)CN2CC(=O)N2CC(C)(C)c3cnc(C(F)(F)c4ccccc4)cc32)c1 [Example 159, 1-{6-[Difluoro(phenyl)methyl]-3,3-dimethyl-1H,2H,3H-pyrrolo[3,2-c]pyridin-1-yl}-2-[(2R,5R)-5-methyl-2-[(4-methyl-1H-pyrazol-1-yl)methyl]piperazin-1-yl]ethan-1-one dihydrochloride] | 120 | – | 72 | inhibition at 0.04 µM [1, 4]: 56%
20 | CCCC(F)(F)c1cnc2c(c1)N(C(=O)CN1C[C@@H](C)NC[C@@H]1CN1CCOC[C@H]1C)CC2(C)C [Example 260, 1-[6-(1,1-Difluoro-butyl)-3,3-dimethyl-2,3-dihydro-pyrrolo[3,2-b]pyridin-1-yl]-2-[(2R,5R)-5-methyl-2-((R)-3-methyl-morpholin-4-ylmethyl)-piperazin-1-yl]-ethanone dihydrochloride] | 4.4 | – | 90 | inhibition at 0.04 µM [1, 4]: 73%

Reference: US9018214B2, “Bicyclic heterocycle compounds and their uses in therapy” (Astex Therapeutics Limited, priority 2011, dated 2015)
